{"source": "patent US4591604A", "about": "“Method of inhibiting the complement system by administering multisulfonated naphthalene ureas” (American Cyanamid Company, priority 1984, dated 1986)", "key": {"[1]": {"biological_target": "activated human C1 (Homo sapiens, UniProt P09871)", "test": "Test Code 026 (C1 inhibitor)", "format": "biochemical", "settings": "serial twofold dilution assay; higher well number indicates higher activity"}, "[2]": {"tested_on": "serum complement activity", "test": "Guinea Pig Intraperitoneal Test (GPIP)", "format": "in vivo", "settings": "200 mg/kg i.p.; for In vivo Activity Guinea Pigs Intraperitoneal % Lowering, 30 minutes: blood sample 30 minutes after injection; for In vivo Activity Guinea Pigs Intraperitoneal % Lowering, 60 minutes: blood sample 60 minutes after injection; for In vivo Activity Guinea Pigs Intraperitoneal % Lowering, 120 minutes: blood sample 120 minutes after injection", "experimental": "(§1) An active inhibitor protects C2 from C1 and C4; (ii) Test Code 036 (C-Shunt inhibitor)--In this test human erythrocytes rendered fragile are lysed in autologous serum via the shunt pathway activated by cobra venom factor in the presence of appropriate dilutions of the test compound. Inhibition of the shunt pathway results in failure of lysis; (iii) Cap 50 Test--Here, appropriate amounts of the test compound are added to a pool of guinea pig serum in vitro, after which the complement level is determined in undiluted serum by the serum capillary tube assay of U.S. Pat. No. 3,876,376. The concentration of compound inhibiting 50% is reported; and (iv) Guinea Pig Intraperitoneal Test (GPIP)--Guinea pigs weighing about 300 g are dosed intraperitoneally (i.p.) with 200 mg/kg of the test compound dissolved in saline and adjusted to pH 7-8. Approximately 0.4 ml blood samples, taken by orbital sinus puncture 30 minutes and one hour after injections, are collected directly into centrifuge tubes; 5 ml blood samples, taken by decapitation 2 hours after injection, are collected directly into diSPo® beakers. The samples were allowed to clot, centrifuged, and the resultant sera were assayed for complement activity using the capillary complement assay. Percent inhibition is calculated by comparison with simultaneous controls. The results of the GPIP appear in Table I together with results of Test Code 026, 036 and Cap 50."}, "[3]": {"tested_on": "shunt pathway activated by cobra venom factor (lysis of human erythrocytes in autologous serum)", "test": "Test Code 036 (C-Shunt inhibitor)", "format": "cell-based", "settings": "serial twofold dilution assay; higher well number indicates higher activity", "experimental": "as §1, with “The results of the GPIP appear in Table I together with results of Test Code 026, 036 and Cap 50.” left out"}, "[4]": {"tested_on": "complement system", "settings": "reported in the literature; cited from earlier work"}, "[5]": {"tested_on": "hereditary angioneurotic edema", "settings": "reported in the literature; cited from earlier work"}, "[6]": {"tested_on": "human serum complement", "settings": "in vitro and in vivo, judged by reduction in total hemolytic complement activity; cited from earlier work"}}, "note": "Counter-ions that a name gives are not always drawn.", "data": [{"compound": "O=C(Nc1cc2c(O)cc(S(=O)(=O)[O-])cc2cc1S(=O)(=O)[O-])Nc1cc2c(O)cc(S(=O)(=O)[O-])cc2cc1S(=O)(=O)[O-].[Na+].[Na+].[Na+].[Na+]", "note": "[3,3'-Ureylenebis(5-hydroxy-2,7-naphthalenedisulfonic acid), tetrasodium salt]", "values": [{"measurement": "C1 026 Wells", "setting": "[1]", "result": "+4 Wells"}, {"measurement": "In vivo Activity Guinea Pigs Intraperitoneal % Lowering, 30 minutes", "setting": "[2]", "result": 4, "unit": "%"}, {"measurement": "In vivo Activity Guinea Pigs Intraperitoneal % Lowering, 60 minutes", "setting": "[2]", "result": 1, "unit": "%"}, {"measurement": "In vivo Activity Guinea Pigs Intraperitoneal % Lowering, 120 minutes", "setting": "[2]", "result": 28, "unit": "%"}]}, {"compound": "O=C(Nc1cc(S(=O)(=O)[O-])c2cc([N+](=O)[O-])cc(S(=O)(=O)[O-])c2c1)Nc1cc(S(=O)(=O)[O-])c2cc([N+](=O)[O-])cc(S(=O)(=O)[O-])c2c1.[Na+].[Na+].[Na+].[Na+]", "note": "[3,3'-Ureylenebis(7-nitro-1,5-naphthalenedisulfonic acid), tetrasodium salt]", "values": [{"measurement": "C1 026 Wells", "setting": "[1]", "result": "+3 Wells"}]}, {"compound": "O=C(Nc1cc2ccc(S(=O)(=O)[O-])cc2cc1S(=O)(=O)[O-])Nc1cc2ccc(S(=O)(=O)[O-])cc2cc1S(=O)(=O)[O-].[Na+].[Na+].[Na+].[Na+]", "note": "[3,3'-Ureylenedi-2,7-naphthalenedisulfonic acid, tetrasodium salt]", "values": [{"measurement": "C1 026 Wells", "setting": "[1]", "result": "+3 Wells"}]}, {"compound": "O=C(Nc1cc(S(=O)(=O)O)cc2cc(S(=O)(=O)O)cc(OS(=O)(=O)c3ccccc3)c12)Nc1cc(S(=O)(=O)O)cc2cc(S(=O)(=O)O)cc(OS(=O)(=O)c3ccccc3)c12", "note": "[4,4'-Ureylenebis(5-hydroxy-2,7-naphthalenedisulfonic acid), tetrasodium salt dibenzenesulfonate]", "values": [{"measurement": "C1 026 Wells", "setting": "[1]", "result": "+3 Wells"}]}, {"compound": "O=C(Nc1ccc(S(=O)(=O)[O-])c2ccc(S(=O)(=O)[O-])cc12)Nc1ccc(S(=O)(=O)[O-])c2ccc(S(=O)(=O)[O-])cc12.[Na+].[Na+].[Na+].[Na+]", "note": "[4,4'-Ureylenedi-1,6-naphthalenedisulfonic acid, tetrasodium salt]", "values": [{"measurement": "C1 026 Wells", "setting": "[1]", "result": "+3 Wells"}]}, {"compound": "O=C(Nc1ccc(S(=O)(=O)[O-])c2ccccc12)Nc1ccc(S(=O)(=O)[O-])c2ccccc12.[Na+].[Na+]", "note": "[4,4'-Ureylenedi-1-naphthalenesulfonic acid, disodium salt]", "values": [{"measurement": "C1 026 Wells", "setting": "[1]", "result": "+2 Wells"}]}, {"compound": "O=C(Nc1cc(S(=O)(=O)[O-])cc2ccc(S(=O)(=O)[O-])cc12)Nc1cc(S(=O)(=O)[O-])cc2ccc(S(=O)(=O)[O-])cc12.[Na+].[Na+].[Na+].[Na+]", "note": "[4,4'-Ureylenedi-2,6-naphthalenedisulfonic acid, tetrasodium salt]", "values": [{"measurement": "C1 026 Wells", "setting": "[1]", "result": "+2 Wells"}]}, {"compound": "O=C(Nc1cc(S(=O)(=O)[O-])cc2cc(S(=O)(=O)[O-])ccc12)Nc1cc(S(=O)(=O)[O-])cc2cc(S(=O)(=O)[O-])ccc12.[Na+].[Na+].[Na+].[Na+]", "note": "[4,4'-Ureylenedi-2,7-naphthalenedisulfonic acid, tetrasodium salt]", "values": [{"measurement": "C1 026 Wells", "setting": "[1]", "result": "+3 Wells"}]}, {"compound": "O=C(Nc1ccc2c(S(=O)(=O)[O-])cc(S(=O)(=O)[O-])cc2c1)Nc1ccc2c(S(=O)(=O)[O-])cc(S(=O)(=O)[O-])cc2c1.[Na+].[Na+].[Na+].[Na+]", "note": "[6,6'-Ureylenedi-1,3-naphthalenedisulfonic acid, tetrasodium salt]", "values": [{"measurement": "C1 026 Wells", "setting": "[1]", "result": "+3 Wells"}]}, {"compound": "O=C(Nc1ccc2c(O)cc(S(=O)(=O)O)cc2c1)Nc1ccc2c(O)cc(S(=O)(=O)O)cc2c1", "note": "[6,6'-ureylenebis(1-hydroxy-3-naphthalenesulfonic acid)]", "values": [{"measurement": "C1 026 Wells", "setting": "[1]", "result": "+1 Wells"}]}, {"compound": "O=C(Nc1cc(S(=O)(=O)[O-])c2cc(S(=O)(=O)[O-])cc(S(=O)(=O)[O-])c2c1)Nc1cc(S(=O)(=O)[O-])c2cc(S(=O)(=O)[O-])cc(S(=O)(=O)[O-])c2c1.[Na+].[Na+].[Na+].[Na+].[Na+].[Na+]", "note": "[7,7'-Ureylenedi-1,3,5-naphthalenetrisulfonic acid, hexasodium salt]", "values": [{"measurement": "C-Shunt Inhibition 036 Wells", "setting": "[3]", "result": "+1 Wells"}, {"measurement": "C1 026 Wells", "setting": "[1]", "result": "+6 Wells"}]}, {"compound": "O=C(Nc1ccc2cc(S(=O)(=O)O)cc(O)c2c1)Nc1ccc2cc(S(=O)(=O)O)cc(O)c2c1", "note": "[7,7'-ureylenebis(1-hydroxy-3-naphthalenesulfonic acid)]", "values": [{"measurement": "C1 026 Wells", "setting": "[1]", "result": "+2 Wells"}]}, {"compound": "O=S(=O)([O-])c1cc(NC(=S)Nc2cc(S(=O)(=O)[O-])cc3cc(S(=O)(=O)[O-])cc(S(=O)(=O)[O-])c23)c2c(S(=O)(=O)[O-])cc(S(=O)(=O)[O-])cc2c1.[Na+].[Na+].[Na+].[Na+].[Na+].[Na+]", "note": "[8,8'-(2-Thioureylene)di-1,3,6-naphthalenetrisulfonic acid, hexasodium salt]", "values": [{"measurement": "C1 026 Wells", "setting": "[1]", "result": "+5 Wells"}, {"measurement": "In vivo Activity Guinea Pigs Intraperitoneal % Lowering, 30 minutes", "setting": "[2]", "result": 41, "unit": "%"}, {"measurement": "In vivo Activity Guinea Pigs Intraperitoneal % Lowering, 60 minutes", "setting": "[2]", "result": 20, "unit": "%"}, {"measurement": "In vivo Activity Guinea Pigs Intraperitoneal % Lowering, 120 minutes", "setting": "[2]", "result": 42, "unit": "%"}]}, {"compound": "O=C(Nc1ccc(S(=O)(=O)[O-])c2cc(S(=O)(=O)[O-])cc(S(=O)(=O)[O-])c12)Nc1ccc(S(=O)(=O)[O-])c2cc(S(=O)(=O)[O-])cc(S(=O)(=O)[O-])c12.[Na+].[Na+].[Na+].[Na+].[Na+].[Na+]", "note": "[8,8'-Ureylenedi-1,3,5-naphthalenetrisulfonic acid, hexasodium salt]", "values": [{"measurement": "In vivo Activity Guinea Pigs Intraperitoneal % Lowering, 30 minutes", "setting": "[2]", "result": 92, "unit": "%"}, {"measurement": "In vivo Activity Guinea Pigs Intraperitoneal % Lowering, 60 minutes", "setting": "[2]", "result": 92, "unit": "%"}, {"measurement": "In vivo Activity Guinea Pigs Intraperitoneal % Lowering, 120 minutes", "setting": "[2]", "result": 94, "unit": "%"}]}, {"compound": "O=C(Nc1cc(S(=O)(=O)[O-])cc2cc(S(=O)(=O)[O-])cc(S(=O)(=O)[O-])c12)Nc1cc(S(=O)(=O)[O-])cc2cc(S(=O)(=O)[O-])cc(S(=O)(=O)[O-])c12.[Na+].[Na+].[Na+].[Na+].[Na+].[Na+]", "note": "[8,8'-Ureylenedi-1,3,6-naphthalenetrisulfonic acid, hexasodium salt]", "values": [{"measurement": "C1 026 Wells", "setting": "[1]", "result": "+5 Wells"}, {"measurement": "In vivo Activity Guinea Pigs Intraperitoneal % Lowering, 30 minutes", "setting": "[2]", "result": 25, "unit": "%"}, {"measurement": "In vivo Activity Guinea Pigs Intraperitoneal % Lowering, 60 minutes", "setting": "[2]", "result": 61, "unit": "%"}, {"measurement": "In vivo Activity Guinea Pigs Intraperitoneal % Lowering, 120 minutes", "setting": "[2]", "result": 65, "unit": "%"}]}, {"compound": "O=C(Nc1cc(S(=O)(=O)[O-])cc2cccc(S(=O)(=O)[O-])c12)Nc1cc(S(=O)(=O)[O-])cc2cccc(S(=O)(=O)[O-])c12.[Na+].[Na+].[Na+].[Na+]", "note": "[8,8'-Ureylenedi-1,6-naphthalenedisulfonic acid, tetrasodium salt]", "values": [{"measurement": "C1 026 Wells", "setting": "[1]", "result": "+3 Wells"}]}, {"compound": "Nc1ccc2cc(S(=O)(=O)[O-])cc(O)c2c1N=Nc1ccc(NC(=O)Nc2ccc(N=Nc3c(N)ccc4cc(S(=O)(=O)[O-])cc(O)c34)c(S(=O)(=O)[O-])c2)cc1S(=O)(=O)[O-].[Na+].[Na+].[Na+].[Na+]", "note": "[chlorazol fast pink, 3,3'-ureylenebis[6-(2-amino-8-hydroxy-6-sulfo-1-naphthylazo)benzenesulfonic acid], tetrasodium salt]", "values": [{"measurement": "anti-complementary effect", "setting": "[4]", "result": "anti-complementary effect"}]}, {"compound": "NCCCCCC(=O)O", "note": "[epsilon-aminocaproic acid]", "values": [{"measurement": "success in the treatment of hereditary angioneurotic edema", "setting": "[5]", "result": "used with success"}]}, {"compound": "NC[C@H]1CC[C@H](C(=O)O)CC1", "note": "[tranexamic acid]", "values": [{"measurement": "success in the treatment of hereditary angioneurotic edema", "setting": "[5]", "result": "used with success"}]}, {"compound": "heparin", "values": [{"measurement": "anti-complementary effect", "setting": "[4]", "result": "anti-complementary effect"}]}, {"compound": "pentosanpolysulfoester", "values": [{"measurement": "anticomplementary activity on human serum", "setting": "[6]", "result": "anticomplementary activity"}]}]}
